This note sets out measurements from doi:10.1101/2021.04.29.441652v1 (biorxiv, 2021).

For assay [1], the target named is T1, human σ2 receptor (TMEM97) (Homo sapiens, UniProt Q5BJF2). In words: [3H]-DTG competition binding, Expi293 membranes.
Assay [2] has as its target T1, human σ2 receptor (TMEM97). In words: [3H]-DTG competition binding, Expi293 membranes. The source holds these as a separate data set.
The target of assay [3] is T1, human σ2 receptor (TMEM97). As to the kind of experiment: biochemical. Format: Expi293 membranes.
In assay [4] the target is T1, human σ2 receptor (TMEM97). In words: biochemical. Format: Expi293 membranes. The note with it: read-out: % of control remaining.
Where [5] appears, read: 10 nM [3H]-DTG, 50 mM Tris pH 8.0, 37 °C, 90 min.

pKi: −log10 of the molar value.

T1 sequence (Q5BJF2 whole entry): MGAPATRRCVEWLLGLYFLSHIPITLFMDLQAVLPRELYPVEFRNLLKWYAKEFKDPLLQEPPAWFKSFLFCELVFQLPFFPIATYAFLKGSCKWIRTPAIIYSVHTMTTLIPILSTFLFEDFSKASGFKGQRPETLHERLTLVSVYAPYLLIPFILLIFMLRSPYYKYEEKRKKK

With ZINC895657866, the pKi in assay [1] (setting [5]) is 7.67.

Consider `C1=C(c2c[nH]c3ncccc23)CCN(CCCc2ccccc2)C1` [Z1241145220], for which the pKi in assay [2] (setting [5]) is 8.43.

On to `OC(CCc1ccccc1)CN1CC=C(c2c[nH]c3ncccc23)CC1` (centres unmarked) [Z1665845742], for which the pKi in assay [2] (setting [5]) is 8.30.

The molecule `C1=C(c2c[nH]c3ccccc23)CCN(CCCc2ccccc2)C1` [Z295861754] showed a negative-log Ki (pKi) in assay [1] of 7.24.

Consider `c1ccc(N2CCC(NC[C@@H]3C[C@H]4CCC[C@@H]4O3)CC2)cc1` [ZINC000872109019], for which the pKi in assay [3] was 7.83. Besides, the remaining activity at 1 µM in assay [4] turned out to be 11.6%.

Consider ZINC450573233, for which, in assay [1] (setting [5]), the pKi was 8.37.

Turning to `c1ccc(CCCN2CCC(c3nnc4ccccn34)CC2)cc1` [Z163048780], the pKi in assay [2] is under 5.00.

Regarding `O[C@@H](COCc1ccccc1Cl)CN1CC[C@H](Cc2ccc(F)cc2)C1` [ZINC000605902355], the pKi in assay [3] is 7.86. For the same molecule, the remaining activity at 1 µM in assay [4] was 11.5%.

With `O[C@@H](CN1CC[C@@H](C2CCCCC2)C1)CC1(O)CCCCC1` [ZINC001460371878], in assay [3], the pKi was 8.10. Further, in assay [4], the remaining activity at 1 µM is 10.9%.

With `c1ccc(CSc2cncc(N3CCC[C@H](N4CCCC4)CC3)n2)cc1` [ZINC000301801549], the pKi in assay [3] is 7.71. Also, the remaining activity at 1 µM in assay [4] worked out at 6.9%.

`Cc1ccc(CCC2CCN(C(=O)CN3C[C@@H]4CC[C@@H](O)[C@H]4C3)CC2)cc1` [ZINC000544117725] showed a pKi in assay [3] of 8.00. Further, in assay [4], the remaining activity at 1 µM turned out to be 0%.

`CC1CCN(C2CCC(NC(=O)C(=O)Nc3ccc(C(C)C)cc3)CC2)CC1` (centres unmarked) [ZINC000131303503] had a negative logarithm of the Ki (pKi) in assay [3] of 7.83. Also, in assay [4], the remaining activity at 1 µM was found to be 10.7%.

Regarding `Cc1ccc([C@H]2CCN(CC3(O)CCC3)C2)c(C)c1` [ZINC000348332392], the pKi in assay [3] is 7.47. The remaining activity at 1 µM in assay [4] was determined as 5.2%.

In the case of `O[C@@H](COCc1ccccc1F)CN1CC(Cc2ccccc2C(F)(F)F)C1` [ZINC001254761628], the pKi in assay [3] was 8.33. For the same molecule, the remaining activity at 1 µM in assay [4] is 1.1%.

In assay [3], `CCc1nnsc1C(=O)N[C@H]1[C@@H]2CN(CC3CCCCCC3)C[C@@H]21` [ZINC000960887654] had a pKi of 7.74. For the same molecule, in assay [4], the remaining activity at 1 µM turned out to be 12.9%.

Regarding `CCOC(=O)[C@@H](CC)N1CCN(C2CCC(C(C)C)CC2)CC1` (some centres unmarked) [ZINC000440321606], the pKi in assay [3] is 8.38. Further, the remaining activity at 1 µM in assay [4] was 11.9%.

The term pKi denotes −log10 of the Ki, conventionally taken in molar units. A higher pKi goes with a low Ki.
